According to BindingDB's records for doi:10.7270/Q2TB15DB (Burnham Center For Chemical Genomics, 2011):

biological target: T1, Endoribonuclease toxin MazF (Escherichia coli (strain K12), UniProt P0AE70); test: substrate-only fluorescence increase artefacts – biochemical, single-stranded RNase substrate, counter-screen for MazEF activator project, dose response (AID 588502)
T1 sequence (P0AE70 whole entry): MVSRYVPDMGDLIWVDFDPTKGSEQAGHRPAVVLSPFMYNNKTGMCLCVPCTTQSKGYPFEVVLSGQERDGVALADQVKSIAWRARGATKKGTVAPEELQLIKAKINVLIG

Compound | EC50 [µM]
Cc1ccc(N/N=C2/C(=O)Nc3ccc(F)cc32)cc1 [5-fluoro-3-[2-(4-methylphenyl)hydrazono]indolin-2-one] | 29.9
O=C1N=c2ccccc2=C1NNc1cccc(Cl)c1 [(3E)-1H-indole-2,3-dione 3-[(3-chlorophenyl)hydrazone]] | > 99
COc1ccc(Nc2oc3cc(=O)ccc-3cc2C(=O)NCC2CCCO2)c(OC)c1 (stereo not drawn) [2-(2,4-dimethoxyanilino)-7-oxo-N-(2-oxolanylmethyl)-1-benzopyran-3-carboxamide] | > 99
COc1cccc(C2=Nc3nnnn3C(c3ccc(N(C)C)cc3)C2)c1 (stereo not drawn) [4-[5-(3-methoxyphenyl)-1,7-dihydro-[1,2,3,4]tetrazolo[1,5-a]pyrimidin-7-yl]-N,N-dimethyl-aniline] | > 99
O=C1N=c2ccc(Br)cc2=C1NNc1ccc(F)cc1 [SMR000564049] | 45.8
COc1cc2c(cc1OC)C(CC(=O)c1ccc([N+](=O)[O-])c(C)c1)=NCC2 [(2Z)-2-(6,7-dimethoxy-3,4-dihydro-2H-isoquinolin-1-ylidene)-1-(3-methyl-4-nitrophenyl)ethanone] | 43.8
Cn1c(C(C#N)C(=O)COc2ccc3ccccc3c2)nc2ccccc21 (stereo not drawn) [(2E)-2-(3-methyl-1H-benzimidazol-2-ylidene)-4-(2-naphthalenyloxy)-3-oxobutanenitrile] | > 99
COc1ccc(CN=Nc2ccc([N+](=O)[O-])cc2S(=O)(=O)N2CCN(C)CC2)cc1 [MLS000553953] | 8.43
CCCN1C(=O)C(=NNc2ccc3ccccc3n2)c2ccccc21 [(3Z)-1-propyl-3-(2-quinolinylhydrazinylidene)-2-indolone] | > 99
CSc1ccc(C2C(C(=O)c3ccco3)C(=O)C(=O)N2c2nnc(SC)s2)cc1 (stereo not drawn) [3-(furan-2-carbonyl)-4-hydroxy-2-(4-methylsulfanylphenyl)-1-(5-methylsulfanyl-1,3,4-thiadiazol-2-yl)-2H-pyrrol-5-one] | > 99
CCOC(=O)c1c(NC=C2C(=O)NC(=O)NC2=O)sc2c1CCC2 [ethyl 2-{[(1E)-(2,4,6-trioxohexahydropyrimidin-5-yl)methylene]amino}-5,6-dihydro-4H-cyclopenta[b]thiophene-3-carboxylate] | > 99
Cc1ccc(C2=Nc3nnnn3C(c3ccc(N(C)C)cc3)C2)cc1 (stereo not drawn) [SMR000092467] | > 99
O=C1N=c2ccccc2=C1NNc1ccccc1F | 31.7
COc1ccc(C=C2CCCC(C(=O)C(F)(F)F)C2=O)cc1 (stereo not drawn) [SMR000142699] | 33.8
Oc1ccc2ccccc2c1C=Nn1c(O)csc1=S [MLS002707175] | > 99
O=C1Nc2ccccc2C1=NNc1ccccc1 [3-(phenylhydrazo)-2-indolone] | 54.6
Cc1cccc(NNC2=c3cc(F)ccc3=NC2=O)c1 [MLS000673317] | > 99
O=[N+]([O-])c1cc/c(=N\c2ccccc2O)c2no[nH]c1-2 [MLS001206694] | > 99
CCCCN1C(=O)C(=NNc2ccccc2O)c2ccccc21 [(3Z)-1-butyl-3-[(2-hydroxyphenyl)hydrazinylidene]indol-2-one] | 69.5
COc1cc(C2c3c(-c4cccs4)n[nH]c3OC(=N)C2C#N)cc(OC)c1O (stereo not drawn) [SMR000275523] | 13.3

Compound | EC50 [µM]
CCOc1ccc(N=CCC(=O)c2ccc(OC)cc2)c([N+](=O)[O-])c1 | 6.29
COc1ccc(N=CCC(=O)c2ccc(C)cc2)cc1OC [SMR000269732] | 25
Cc1[nH]c2ccccc2c1/C=C1\N=C(c2ccc(C(F)(F)F)cc2)OC1=O [SMR000152363] | > 99
COCc1n[nH]c2c1C(c1cc(OC)c(O)c(OC)c1)C(C#N)C(=N)O2 (stereo not drawn) [6-azanyl-4-(3,5-dimethoxy-4-oxidanyl-phenyl)-3-(methoxymethyl)-2,4-dihydropyrano[2,3-c]pyrazole-5-carbonitrile] | > 99
O=C1N=c2ccccc2=C1NNc1ccc(F)cc1 | > 99
N#Cc1ccc(-n2c(O)c3[nH][nH]c(C(=O)c4ccc5ccccc5n4)c-3c2=O)cc1 [4-[(3aS,6aS)-4,6-dioxo-3-[oxo(2-quinolinyl)methyl]-3a,6a-dihydro-1H-pyrrolo[3,4-c]pyrazol-5-yl]benzonitrile] | 0.271
O=C(c1ccc2ccccc2n1)c1[nH][nH]c2c(O)n(-c3cccc(C(F)(F)F)c3)c(=O)c1-2 [SMR000212847] | > 99
CCC(N=Nc1cccc(C)c1)c1cnnc(SC)n1 (stereo not drawn) [MLS000705906] | > 99
O=c1[nH]c(N=NCc2ccc(F)cc2)nc2ccccc12 [MLS000700887] | > 99
O=C(c1ccc2ccccc2n1)c1[nH][nH]c2c(O)n(-c3cccc(F)c3)c(=O)c1-2 [(3aS,6aS)-5-(3-fluorophenyl)-3-[oxo(2-quinolinyl)methyl]-3a,6a-dihydro-1H-pyrrolo[3,4-c]pyrazole-4,6-dione] | > 99
O=C1NC(=O)N(C2CCCCC2)C(=O)C1=CCC=Nc1ccccc1 [(5Z)-5-[(E)-3-anilinoprop-2-enylidene]-1-cyclohexyl-1,3-diazinane-2,4,6-trione] | 9.49
Cc1nnc(N2C(=O)C(=O)C(C(=O)c3ccco3)C2c2ccc(C(C)(C)C)cc2)s1 (stereo not drawn) [2-(4-tert-butylphenyl)-3-(furan-2-carbonyl)-4-hydroxy-1-(5-methyl-1,3,4-thiadiazol-2-yl)-2H-pyrrol-5-one] | 19.7
Clc1cccc(C(Cc2nc3ccccc3[nH]2)N=Nc2ccccc2)c1 (stereo not drawn) [MLS000374846] | > 99
CCSc1nnc(N2C(=O)C(=O)C(C(=O)c3ccco3)C2c2cccc(OC)c2)s1 (stereo not drawn) [MLS001140620] | > 99
O=c1cc2oc(O)c3cc(O)c(O)c(O)c3c-2oc1=O [6,8,9,10-tetrahydroxypyran[3,2-c]isochromene-2,3-quinone] | > 99
CC1(C)CC(=O)C(N=Nc2cc3c(cc2[N+](=O)[O-])OCCO3)C(=O)C1 [SMR000348183] | 29.6
O=C1Nc2ccc([N+](=O)[O-])cc2C1=NNc1ccc(F)cc1 | 20.3
O=[N+]([O-])c1ccc(N=NCc2ccc3c(c2)OCO3)nc1 [N-(1,3-benzodioxol-5-ylmethylideneamino)-5-nitro-pyridin-2-amine] | > 99
Cc1ccc(S(=O)(=O)N[N-][C+]2CCC(C(C)(C)C)CC2)cc1[N+](=O)[O-] [SMR000241764] | > 99
Cc1ccc2nc(N3C(=O)C(=O)C(C(=O)c4ccco4)C3c3cccs3)sc2c1 (stereo not drawn) | > 99

Compound | EC50 [µM]
O=C1C(=O)N(c2nccs2)C(c2ccccc2)C1C(=O)c1cc2ccccc2o1 (stereo not drawn) [3-(1-benzofuran-2-carbonyl)-4-hydroxy-2-phenyl-1-(1,3-thiazol-2-yl)-2H-pyrrol-5-one] | > 99
C=CCOc1cccc(C2C(C(=O)c3ccc(C)o3)C(=O)C(=O)N2c2nccs2)c1 (stereo not drawn) [3-(5-methylfuran-2-yl)carbonyl-4-oxidanyl-2-(3-prop-2-enoxyphenyl)-1-(1,3-thiazol-2-yl)-2H-pyrrol-5-one] | > 99
N=C(N)C1=CC(=O)/C(=C/C=c2ccc(=C(N)N)cc2)C=C1 [(4E)-4-[2-[4-[bis(azanyl)methylidene]cyclohexa-2,5-dien-1-ylidene]ethylidene]-3-oxidanylidene-cyclohexa-1,5-diene-1-carboximidamide;2-oxidanylethanesulfonic acid] | > 99
Cc1oc(C)c2c(=O)ccc3c(c12)OC(=N)C(C#N)C3c1ccccc1 (stereo not drawn) | > 99
C=c1[nH]n(-c2ccccc2)c(=O)c1=Cc1cc(C)n(C2CC2)c1C [MLS001018445] | > 99
CSc1nnc(N2C(=O)C(=O)C(C(=O)c3ccc(C)o3)C2c2ccc(C)cc2)s1 (stereo not drawn) [SMR000650392] | > 99
N#CC(C(=O)c1ccc([N+](=O)[O-])o1)c1nc2ccccc2[nH]1 (stereo not drawn) | 5.53
O=[N+]([O-])c1ccc(N=NCc2ccccc2)c(F)c1 [2-fluoranyl-4-nitro-N-[(phenylmethylidene)amino]aniline] | 27.2
CCOc1cccc(C2C(C(=O)c3ccc(C)o3)C(=O)C(=O)N2c2nccs2)c1 (stereo not drawn) [2-(3-ethoxyphenyl)-3-(5-methylfuran-2-yl)carbonyl-4-oxidanyl-1-(1,3-thiazol-2-yl)-2H-pyrrol-5-one] | > 99
CCN1C(=O)C(C=NN=Cc2ccccc2)c2ccc(C3=NNC(=O)CC3)cc21 (stereo not drawn) [benzaldehyde {[1-ethyl-2-oxo-6-(6-oxo-1,4,5,6-tetrahydro-3-pyridazinyl)-1,2-dihydro-3H-indol-3-ylidene]methyl}hydrazone] | > 99
CCN(CC)c1ccc(CN=Nc2ccc([N+](=O)[O-])cn2)cc1 [N-[[4-(diethylamino)phenyl]methylideneamino]-5-nitro-pyridin-2-amine] | 70.2
Cc1[nH]c2ccccc2c1/C=C1\N=C(c2ccc(F)cc2)OC1=O [2-(4-fluorophenyl)-4-[(2-methyl-1H-indol-3-yl)methylene]-1,3-oxazol-5(4H)-one] | 55.9
O=[N+]([O-])c1ccc(N=NCc2cccc3ccccc23)nc1 [N-(naphthalen-1-ylmethylideneamino)-5-nitro-pyridin-2-amine] | 45.4
CCCCOc1cccc(C2C(C(=O)c3ccc(C)o3)C(=O)C(=O)N2c2nnc(C)s2)c1 (stereo not drawn) [2-(3-butoxyphenyl)-3-(5-methylfuran-2-yl)carbonyl-1-(5-methyl-1,3,4-thiadiazol-2-yl)-4-oxidanyl-2H-pyrrol-5-one] | 20.4
Cc1cc(O)n(-c2ccc(NCc3ccc(Cl)cc3)c([N+](=O)[O-])c2)c1O [1-{4-[(4-chlorobenzyl)amino]-3-nitrophenyl}-3-methylpyrrolidine-2,5-dione] | > 99
Cc1ccc(Cl)c2c1=NC(=O)C=2NNc1ccccc1 | 8.15
CC1CC(=O)C2=C(C1)OC(=N)C(C#N)C2c1coc2ccccc2c1=O (stereo not drawn) | > 99
Cc1ccc(NN=C2C(=O)N(CN3CCOCC3)c3ccccc32)cc1 [(3Z)-3-[(4-methylphenyl)hydrazinylidene]-1-(4-morpholinylmethyl)-2-indolone] | 50.5
